From PubChem BioAssay (NCI)
“And” between values parts separate entries of the source, which are not always exact repeats. Equal values may be shown once.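 Where inhibition never reached the appropriate level, the endpoint shown equals the highest concentration tested. Otherwise, values were interpolated linearly from a five-concentration, 48-hour dose response in 96-well plates. GI50 is the concentration that inhibits growth by half. The concentration for full growth arrest is given as TGI.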

Experiments:
Test in all cases: growth of human tumour cells (NCI), 48 h
[1] = tested on: UACC-257 melanoma
[2] = tested on: HT29 colon
[3] = tested on: MDA-N
[4] = tested on: HOP-62 NSCLC
[5] = tested on: SK-MEL-28 melanoma
[6] = tested on: SW-620 colon
[7] = tested on: OVCAR-5 ovarian
[8] = tested on: MOLT-4 leukemia
[9] = tested on: BT-549 breast
[10] = tested on: NCI-H522 lung
[11] = tested on: T-47D breast

| Compound | TGI [1] [µM] | TGI [2] [µM] | TGI [3] [µM] | TGI [4] | TGI [5] [µM] | TGI [6] [µM] | TGI [7] | TGI [8] [µM] | TGI [9] [µM] | TGI [10] [µM] | TGI [11] [µM] | GI50 [1] [µM] | GI50 [2] [µM] | GI50 [4] [µM] | GI50 [11] [µM] | GI50 [6] [µM] | GI50 [7] [µM] | GI50 [8] [µM] | GI50 [10] [µM] | GI50 [5] [µM] |
| --- | --- | --- | --- | --- | --- | --- | --- | --- | --- | --- | --- | --- | --- | --- | --- | --- | --- | --- | --- | --- |
| CC(C)(C)n1c(=O)n2n(c1=O)Cc1cccc3cccc(c13)C2 | 89.6 | 39.7 | 50.8 | 33.2 µM | 58.8 | 35.9 | 35.1 µM | 93.8 | 95.3 | 13.6 |  |  |  |  |  |  |  |  |  |  |
| NC(=S)N/N=C/c1nccc2ccccc12 |  | > 100 |  | > 100 µM | > 100 | > 100 | > 100 µM | > 100 |  | 5.24 |  |  |  |  |  |  |  |  |  |  |
| CC1(C)CC(=O)C(/C=N/C(N)=S)=C(O)C1 | > 100 | > 100 | > 100 | > 100 µM | > 100 | > 100 | > 100 µM | > 100 | > 100 | > 100 |  |  |  |  |  |  |  |  |  |  |
| COc1ccc(CC2C3=C(CCN2C(=O)C2CCC2)CC2(CC3)OCCO2)cc1O (stereo unspecified) | > 100 | > 100 | 31.6 | > 100 µM | > 100 | > 100 | > 100 µM | > 100 |  | 38.3 | > 100 |  |  |  |  |  |  |  |  |  |
| CC(=O)C1C(=O)C(=O)N(c2ccccc2)C1=O (stereo unspecified) | > 100 | > 100 | > 100 | > 100 µM | > 100 | > 100 | > 100 µM | > 100 | > 100 | > 100 |  |  |  |  |  |  |  |  |  |  |
| O=C1C(C(O)(C(F)(F)Cl)C(F)(F)Cl)CCCC1C(O)(C(F)(F)Cl)C(F)(F)Cl (stereo unspecified) | > 10 | > 10 | > 10 | > 10 µM | > 10 | > 10 | > 10 µM |  | > 10 | > 10 | > 10 |  |  |  |  |  |  |  |  |  |
| C1=NCCN2CCN(CCN=Cc3ccccc3OCc3cccc(n3)COc3ccccc31)CC2 | 34.4 | 18.5 | 2.72 | > 50 µM | > 50 | > 50 | 28.3 µM | 34.3 | 25.9 | > 50 |  |  |  |  |  |  |  |  |  |  |
| Cc1cc(O)c2c(c1O)C(=O)c1cccc(O)c1C2=O | > 100 | > 100 | > 100 | > 100 µM | > 100 | > 100 | > 100 µM |  | > 100 | > 100 | > 100 |  |  |  |  |  |  |  |  |  |
| C=C1CCCC2[C@](C)(CC3=C(Cl)C(=O)C=C(OC)C3=O)C(C)CC[C@]12C (stereo partly specified) | 13.6 | 7.37 | 13.7 | 13.5 µM | 17 | 10.4 | 9 µM | 6.99 | 11.4 | 3.18 |  |  |  |  |  |  |  |  |  |  |
| CCN(CC)Cc1cc(Nc2c3ccccc3nc3c2[nH]c2ccccc23)cc(CN(CC)CC)c1O | 2.86 | 5.1 | 2.07 | 2.26 µM | 5.3 | 2.47 | 9.21 µM |  | 2.83 | 2.47 |  |  |  |  |  |  |  |  |  |  |
| COc1cc([C@@H]2c3cc4c(c(O)c3C[C@H]3COC(=O)[C@@H]32)OCO4)cc(OC)c1OC |  |  |  | 57.9 µM and 218 µM and > 100 µM |  |  | 150 µM and > 241 µM and > 100 µM |  |  |  | > 231 | > 100 | 1.18 | 0.249 | 0.324 | 0.123 | 0.725 | 0.539 | 0.393 |  |
| O=C(c1ccccc1)c1ccc(N2C(=O)/C(=C/Cc3ccco3)N=C2c2ccccc2)c(N2C(=O)/C(=C/Cc3ccco3)N=C2c2ccccc2)c1 | > 100 | > 100 | > 100 | > 100 µM | > 100 | > 100 | > 100 µM | 56.6 | > 100 |  | > 100 |  |  |  |  |  |  |  |  |  |
| O=C(Cn1cc(-c2ccccc2)nn1)NC1CCCCC1 | > 100 | > 100 |  | > 100 µM | > 100 | > 100 | > 100 µM | > 100 | > 100 | > 100 |  |  |  |  |  |  |  |  |  |  |
| CCN1CCCC(C#N)(c2ccccc2)CC1 (stereo unspecified) | > 100 | > 100 | > 100 | > 100 µM | > 100 | > 100 | > 100 µM | > 100 |  |  | > 100 |  |  |  |  |  |  |  |  |  |
| Cc1[nH]c(=O)nc2c1C(NCCCN(C)C)c1cc(Cl)ccc1N2 (stereo unspecified) | 26 | 22.2 |  | 27.9 µM | 27.2 | 28.6 |  | 44.6 |  | 28.5 |  |  |  |  |  |  |  |  |  |  |
| c1ccc2c(c1)NCCC(=NC1CCCCC1)N2 | > 100 | > 100 | > 100 | > 100 µM | > 100 | > 100 | > 100 µM | > 100 | > 100 | > 100 |  |  |  |  |  |  |  |  |  |  |
| c1ccc2c(CN3CCN(Cc4c[nH]c5ccccc45)CC3)c[nH]c2c1 | 27.5 | 36.1 | 29.1 | 31.2 µM | 36.9 | 93.9 | 36.4 µM |  | 58.6 | 31.3 | 39.1 |  |  |  |  |  |  |  |  |  |

| Compound | TGI [1] [µM] | TGI [2] [µM] | TGI [3] [µM] | TGI [4] | TGI [5] [µM] | TGI [6] [µM] | TGI [7] | TGI [8] [µM] | TGI [9] [µM] | TGI [10] [µM] | TGI [11] [µM] | GI50 [1] [µM] | GI50 [2] [µM] | GI50 [4] [µM] | GI50 [11] [µM] | GI50 [6] [µM] | GI50 [7] [µM] | GI50 [8] [µM] | GI50 [10] [µM] | GI50 [5] [µM] |
| --- | --- | --- | --- | --- | --- | --- | --- | --- | --- | --- | --- | --- | --- | --- | --- | --- | --- | --- | --- | --- |
| COc1ccc(N=C2S/C(=N\C(=Nc3ccccc3)SCc3ccccc3)N(c3ccccc3)C2=Nc2ccc(OC)cc2)cc1 | > 100 | > 100 | > 100 | > 100 µM | > 100 | > 100 |  | > 100 | > 100 |  | > 100 |  |  |  |  |  |  |  |  |  |
| FC(F)(F)c1ccc(Cc2nc3cc4ccccc4cc3[nH]2)cc1 | > 100 | > 100 |  | > 100 µM | > 100 | > 100 | > 100 µM |  | > 100 | > 100 | > 100 |  |  |  |  |  |  |  |  |  |
| Cc1nc2c(c(=O)[nH]1)S/C(=C(/C#N)c1nc3ccccc3[nH]1)N2c1ccccc1 | > 100 | > 100 |  | > 100 µM | > 100 | > 100 | > 100 µM | > 100 |  | > 100 |  |  |  |  |  |  |  |  |  |  |
| O=C(NC(Cl)(C(F)(F)F)C(F)(F)F)c1ccc(F)cc1 | > 100 | > 100 | > 100 | > 100 µM | > 100 | > 100 | > 100 µM | > 100 |  |  | > 100 |  |  |  |  |  |  |  |  |  |
| C=C(C)C(=O)O[C@H]1CC2=C[C@@H](C[C@@]3(C)O[C@@H]3[C@H]3OC(=O)C(=C)[C@@H]31)OC2=O | 5.63 | 5.93 |  | 98.9 µM | 3.61 | 1.94 | 12.2 µM | 12.8 |  | 1.71 |  |  |  |  |  |  |  | 0.789 |  | 1.24 |
| Clc1c(Cl)c(Cl)c2c(nnn2C2CCCO2)c1Cl (stereo unspecified) | > 100 | > 100 | 74.3 | > 100 µM |  |  | > 100 µM | 46.3 |  | 66.6 | > 100 |  |  |  |  |  |  |  |  |  |
| CCOP(=O)(C=C=C1CCC2[C@@H]3CCc4cc(OC)ccc4C3CC[C@]12C)OCC (stereo partly specified) | 19.6 | 17.7 | 26 | 30 µM | 23.9 | 29.2 | 31.4 µM |  |  | 18.9 | 26.6 |  |  |  |  |  |  |  |  |  |
| Nc1ccccc1Nc1ccccc1C(=O)[O-].Nc1ccccc1Nc1ccccc1C(=O)[O-].[Zn+2] | > 100 | > 100 |  | > 100 µM | > 100 | > 100 | > 100 µM | > 100 |  | 44.4 |  |  |  |  |  |  |  |  |  |  |
| CCOP(=O)(OCC)C(C)(C)N(C)/C(F)=N/C(F)(F)F | > 100 | > 100 | > 100 | > 100 µM | > 100 | > 100 | > 100 µM | > 100 |  |  | > 100 |  |  |  |  |  |  |  |  |  |
| CC(C)C1OC(N)=C(C#N)C1(C#N)C#N (stereo unspecified) | 96.4 | > 100 | > 100 | > 100 µM |  | > 100 | > 100 µM |  |  | > 100 | > 100 |  |  |  |  |  |  |  |  |  |
| COc1ccccc1C1C(Cl)C(=O)N1n1cnc2ccccc2c1=O (stereo unspecified) | > 100 | > 100 |  | > 100 µM | > 100 | > 100 | > 100 µM | > 100 |  | > 100 |  |  |  |  |  |  |  |  |  |  |
| Clc1ccc(Nc2nnc(CCCCCCCCc3nnc(Nc4ccc(Cl)cc4)o3)o2)cc1 | > 100 | > 100 | > 100 | > 100 µM | > 100 | > 100 | > 100 µM | > 100 | > 100 | 73.1 |  |  |  |  |  |  |  |  |  |  |
| Oc1cc(O)c2ccc(-c3ccc(O)c(O)c3)[o+]c2c1 | > 100 | > 100 | > 100 | > 100 µM | > 100 | > 100 | > 100 µM | > 100 | > 100 | > 100 |  |  |  |  |  |  |  |  |  |  |
| C[Si](C)(C)C#Cc1cc(-c2nc3ccccc3s2)ccc1N | 34.8 | 38.6 | 33.7 | 29.9 µM |  | 35 | 33.5 µM | 97.4 | 33.1 | 27.3 | > 100 |  |  |  |  |  |  |  |  |  |
| NC(=O)C(=O)c1ncn(Cc2ccccc2)c1N | > 100 | > 100 | > 100 | > 100 µM | > 100 | > 100 | > 100 µM |  |  | > 100 | > 100 |  |  |  |  |  |  |  |  |  |
| Cc1ccc2c(=O)cc(Cc3cccs3)[nH]c2n1 | > 100 | > 100 |  | > 100 µM | > 100 | > 100 | > 100 µM | > 100 | > 100 | > 100 | > 100 |  |  |  |  |  |  |  |  |  |
